Laboratory results reported in paper PMC9977398, “Next-generation membrane-active glycopeptide antibiotics that also inhibit bacterial cell division” (Chemical Science, 2023).
Converted amounts (≈) assume the structure as drawn. Like-named read-outs stand apart in the source and are kept apart here.

Columns and labels:
[1] = system: AB 1425 (A. baumannii MTCC 1425); assay: MIC determination, micro-dilution broth; type: cell-based
Description: (§1) The increase in the carbon content of substituted moieties from six (1) to seven (2 and 3) to ten (5) to twelve (4), increased activity. […]
(§2) Test compound was assayed in a micro -dilution broth format as per the CLSI guideline. The bacterial freeze dried stock samples were stored at -80 °C. About 5 μL of these stocks were added to 3 mL of the respective broth and the culture was grown for 6 h at 37°C with prior to the experiments. This 6 h grown culture was diluted to give effective cell concentration of 10 5 CFU/mL which was then used for determining MIC. Compounds were serially diluted 2 -fold, in sterile millipore water and 50 μL of these serial dilutions were added to the wells of 96 well plate followed by the addition of about 150 μL of bacterial solution. The plates were then incubated for 18-24 h at 37 °C. The O.D. value at 600 nm was recorded using TECAN (Infinite series, M200 pro) Plate Reade r. Each concentration had triplicate values and the whole experiment was done at least twice and the MIC value was determined by taking the average of triplicate O. D. values for each concentration and plotting it against concentration. The data was then subjected to sigmoidal fitting. From the curve the MIC value was determined, as the point where the O. D. was similar to that of control having no bacteria.

[2] = system: AB R674 (A. baumannii); assay: MIC determination, micro-dilution broth; type: cell-based
Description: as §1, §2

[3] = system: MRSA, methicillin-resistant S. aureus (ATCC 33591); assay: MIC determination, micro-dilution broth; type: cell-based; conditions: Staphylococcus aureus, read-out: Minimum inhibitory concentration, MRSA
Description: as §1, §2

[4] = system: PA R590 (MDR strain of P. aeruginosa); assay: MIC determination, micro-dilution broth; type: cell-based
Description: as §1, §2

[5] = system: MRSA; assay: Membrane permeabilization assay, propidium iodide uptake; type: cell-based, S. aureus
Description: The kinetics of permeabilization of membranes of MRSA and B. subtilis by the compounds was measured by the uptake of propidium iodide (PI). […] When the membrane integrity is compromised, it enters the cell and fluoresces upon binding to the DNA. Both VanQbiph (4) and VanQAmC10 (8) permeabilized the membrane in a concentration-dependent manner (Fig. S2 ^†). […] They caused gradual permeabilization against the stationary phase cells of MRSA as well (Fig. 2F). The extent of permeabilization was higher for VanQAmC10 (8) than VanQbiph (4) against both the log-phase and stationary-phase bacteria similar to that observed during depolarisation.
50 μL of serially diluted compound was added into 96 well microtiter plates. Freshly drawn, heparanized human blood was centrifuged down to obtain the erythrocytes and re-suspended to 5 vol % in PBS (pH 7.4). 150 μL of the erythrocyte suspension was added to the serially diluted compounds (from 500 µM to 2 µM). One set without compound and other with 50 μL of 1 vol % solution of Triton X-100 were kept as controls. […] 100 μL of the supernatant from each well were transferred into fresh microtiter plates, and A540 was measured.
% haemolysis = (A - A0)/(Atotal -A0) × 100, where A is the absorbance of the test well, A 0 the absorbance of the negative controls (without compound), and A total the absorbance of 100 % hemolysis wells (with Triton X -100), all at 540 nm. […]
2 h post incubation with dye, the absorbance was measured at 570 nm using 600 nm as […]
The bactericidal activity of the compounds was evaluated with the time kill kinetics assay.
MRSA ATCC 33591 cells were cultured in nutrient media at 37°C for 6 h. […] The bacterial colonies were counted and results are represented in logarithmic scale, i.e. log10 (CFU/mL). […]
were added to it the wells containing bacterial suspension. Fluorescence has monitored at excitation wavelength of 535 nm (slit width: 10 nm) and emission wavelength of 617 nm (slit width: 5 nm). As a measure of inner membrane permeabilization the uptake of PI was monitor by the increase in fluorescence for 30-50 min. […]

[6] = system: planktonic cells; assay: Viability of planktonic cells post-treatment in HEPES-glucose; type: cell-based
Description: To confirm that membrane perturbation contributed to cell death, the bacterial viability was evaluated under conditions similar to the mechanistic studies. […] The number of viable cells was lower upon treatment with VanQAmC10 (8) than when treated with VanQbiph (4) at the same concentration. […] The stronger membrane–perturbation properties of VanQAmC10 (8) therefore contribute to higher activity against both exponentially growing and stationary phase bacteria.

[7] = Acinetobacter baumannii, MTCC1425, read-out: Minimum inhibitory concentration, AB 1425
[8] = Acinetobacter baumannii, read-out: Minimum inhibitory concentration, AB R674
[9] = Pseudomonas aeruginosa, read-out: Minimum inhibitory concentration, PA R590

Q: How did the MIC [1, 7] turn out when `CCCCCCCCCCNC(=O)C[N+](C)(C)CCCNC(=O)C1NC(=O)C2NC(=O)C(NC(=O)C3NC(=O)C(CC(N)=O)NC(=O)C(NC(=O)C(CC(C)C)NC)C(O)c4ccc(c(Cl)c4)Oc4cc3cc(c4OC3OC(CO)C(O)C(O)C3OC3CC(C)(N)C(O)C(C)O3)Oc3ccc(cc3Cl)C2O)c2ccc(O)c(c2)-c2c(O)cc(O)cc21` (centres unmarked) [VanQAmC10 (8)] was run?
A: Its MIC is 6.3 µM.

Q: And the MIC [2, 8]?
A: Its MIC is 10 µM.

Q: And the MIC [3]?
A: Its MIC is 0.4 µM.

Q: What about the MIC [4, 9] of the same compound?
A: Its MIC is 3.1 µM.

Q: What about the “time to membrane permeabilization” value ([5]; exponentially growing MRSA, 10 μM, PI uptake) of the same compound?
A: Its value is no more than 4 min.

Q: And the “reduction in viable cells” value ([6]; 5 μM)?
A: Its value is 2 log CFU mL^−1.

Q: And the “reduction in viable cells” value ([6]; 10 μM)?
A: Its value is 4 log CFU mL^−1.

Q: For `CNC(CC(C)C)C(=O)NC1C(=O)NC(CC(N)=O)C(=O)NC2C(=O)NC3C(=O)NC(C(=O)NC(C(=O)NCCC[N+](C)(C)Cc4ccc(-c5ccccc5)cc4)c4cc(O)cc(O)c4-c4cc3ccc4O)C(O)c3ccc(c(Cl)c3)Oc3cc2cc(c3OC2OC(CO)C(O)C(O)C2OC2CC(C)(N)C(O)C(C)O2)Oc2ccc(cc2Cl)C1O` (centres unmarked) [VanQbiph (4)], which MIC ([1]; Acinetobacter baumannii, MTCC1425; read-out: Minimum inhibitory concentration, AB 1425) is on record?
A: The MIC was 15.7 µM.

Q: What about the MIC ([2]; Acinetobacter baumannii; read-out: Minimum inhibitory concentration, AB R674) of the same compound?
A: The MIC was 24.5 µM.

Q: And the MIC ([3]; MRSA ATCC 33591)?
A: Its MIC is 0.5 µM.

Q: And the MIC ([4]; Pseudomonas aeruginosa; read-out: Minimum inhibitory concentration, PA R590)?
A: Its MIC is greater than 30 µM.

Q: And the “effect on membrane integrity (PI uptake)” value [5]?
A: The value was “slower permeabilization”.

Q: And the “reduction in viable cells” value ([6]; 5 μM)?
A: Its value is 0.8 log CFU mL^−1.

Q: And the “reduction in viable cells” value ([6]; 10 μM)?
A: The value was 2.2 log CFU mL^−1.

Q: Which MIC [1, 7] does the source give for `CN[C@H](CC(C)C)C(=O)N[C@H]1C(=O)N[C@@H](CC(N)=O)C(=O)N[C@H]2C(=O)N[C@H]3C(=O)N[C@H](C(=O)N[C@H](C(=O)O)c4cc(O)cc(O)c4-c4cc3ccc4O)[C@H](O)c3ccc(c(Cl)c3)Oc3cc2cc(c3O[C@@H]2O[C@H](CO)[C@@H](O)[C@H](O)[C@H]2O[C@H]2C[C@](C)(N)[C@H](O)[C@H](C)O2)Oc2ccc(cc2Cl)[C@H]1O` [Vancomycin, reference compound] here?
A: Its MIC is 100 µM (≈ 145 µg/mL).

Q: What about the MIC [2, 8] of the same compound?
A: Its MIC is 100 µM (≈ 145 µg/mL).

Q: What about the MIC [3] of the same compound?
A: Its MIC is 0.6 µM (≈ 0.87 µg/mL).

Q: And the MIC [4, 9]?
A: Its MIC is 100 µM (≈ 145 µg/mL).

Q: And the “effect on membrane integrity (PI uptake)” value [5]?
A: Its value is “does not affect the membrane integrity”.

Q: What about the “effect on viable cells” value ([6]; 40 μM) of the same compound?
A: Its value is “did not reduce the viability of bacteria”.
